# Measurements reported in paper PMC5218480 (PLoS ONE, 2017).
# System: MV-4-11 cells
# Assay: Gene expression microarray analysis (Affymetrix PrimeView) and GSEA
# Type: cell-based, human
# Design: RFU PODN (11730768_x_at) / Fold change /veh PODN (11730768_x_at) / RFU LINC00158 (11744669_a_at) / Fold change /veh LINC00158 (11744669_a_at) / RFU DUSP10 (11751237_a_at) / Fold change /veh DUSP10 (11751237_a_at) / RFU ID3 (11757404_x_at) / Fold change /veh ID3 (11757404_x_at) / RFU PLEKHG5 (11737974_s_at) / Fold change /veh PLEKHG5 (11737974_s_at) / RFU LRRC4B (11730491_at) / Fold change /veh LRRC4B (11730491_at) / RFU GIMAP4 (11747438_a_at) / Fold change /veh GIMAP4 (11747438_a_at) / RFU KRT8 (11758183_x_at) / Fold change /veh KRT8 (11758183_x_at) / RFU CNN1 (11734310_a_at) / Fold change /veh CNN1 (11734310_a_at) / RFU VPS37D (11726825_at) / Fold change /veh VPS37D (11726825_at) / RFU C10orf10 (11716522_x_at) / Fold change /veh C10orf10 (11716522_x_at) / RFU KIR2DL2 /// KIR2DL4 /// KIR2DL5A /// KIR2DL5B /// KIR2DS1 /// KIR2DS2 /// KIR2DS3 /// KIR2DS4 /// KIR3DL3 /// KIR3DL3 /// KIR3DS1 (11738374_at) / Fold change /veh KIR2DL2 /// KIR2DL4 /// KIR2DL5A /// KIR2DL5B /// KIR2DS1 /// KIR2DS2 /// KIR2DS3 /// KIR2DS4 /// KIR3DL3 /// KIR3DL3 /// KIR3DS1 (11738374_at) / RFU C1QL1 (11718748_at) / Fold change /veh C1QL1 (11718748_at) / RFU TMPRSS4 (11747572_a_at) / Fold change /veh TMPRSS4 (11747572_a_at) / RFU HAMP (11756126_x_at) / Fold change /veh HAMP (11756126_x_at) / RFU RNFT2 (11725882_a_at) / Fold change /veh RNFT2 (11725882_a_at) / RFU NR4A2 (11747474_a_at) / Fold change /veh NR4A2 (11747474_a_at) / RFU ABCC12 (11746883_a_at) / Fold change /veh ABCC12 (11746883_a_at) / RFU TMEM136 (11760407_x_at) / Fold change /veh TMEM136 (11760407_x_at) / RFU CLDN22 /// WWC2 (11732394_at) / Fold change /veh CLDN22 /// WWC2 (11732394_at) / RFU HLA-DPB1 (11760878_x_at) / Fold change /veh HLA-DPB1 (11760878_x_at) / RFU SPINT1 (11716480_a_at) / Fold change /veh SPINT1 (11716480_a_at) / RFU GAP43 (11754022_s_at) / Fold change /veh GAP43 (11754022_s_at) / RFU A4GNT (11735810_at) / Fold change /veh A4GNT (11735810_at) / RFU PRB3 (11715151_x_at) / Fold change /veh PRB3 (11715151_x_at) / RFU TUBB4B (11761932_at) / Fold change /veh TUBB4B (11761932_at) / RFU CAPN14 (11732068_a_at) / Fold change /veh CAPN14 (11732068_a_at) / RFU TMCC2 (11721928_a_at) / Fold change /veh TMCC2 (11721928_a_at) / RFU IRGQ (11745062_a_at) / Fold change /veh IRGQ (11745062_a_at) / RFU FAM174B (11720279_a_at) / Fold change /veh FAM174B (11720279_a_at) / RFU TMPRSS4 (11748680_a_at) / Fold change /veh TMPRSS4 (11748680_a_at) / RFU FAM212B (11763350_a_at) / Fold change /veh FAM212B (11763350_a_at) / RFU PLEKHG5 (11743358_a_at) / Fold change /veh PLEKHG5 (11743358_a_at) / RFU ZSCAN30 (11745921_a_at) / Fold change /veh ZSCAN30 (11745921_a_at) / RFU CMKLR1 (11741424_a_at) / Fold change /veh CMKLR1 (11741424_a_at) / RFU LOC101060620 /// MAPK8IP1 (11723275_at) / Fold change /veh LOC101060620 /// MAPK8IP1 (11723275_at) / RFU SPTSSB (11747773_x_at) / Fold change /veh SPTSSB (11747773_x_at) / RFU PRSS12 (11739890_at) / Fold change /veh PRSS12 (11739890_at) / RFU BIN1 (11741810_x_at) / Fold change /veh BIN1 (11741810_x_at) / RFU WNT11 (11732464_a_at) / Fold change /veh WNT11 (11732464_a_at) / RFU C10orf10 (11716521_a_at) / Fold change /veh C10orf10 (11716521_a_at) / RFU C5orf56 (11738089_at) / Fold change /veh C5orf56 (11738089_at) / RFU CYB561 (11721691_x_at) / Fold change /veh CYB561 (11721691_x_at) / RFU ANKRD19P (11752326_a_at) / Fold change /veh ANKRD19P (11752326_a_at) / RFU OR2T12 /// OR2T33 /// OR2T8 (11738714_s_at) / Fold change /veh OR2T12 /// OR2T33 /// OR2T8 (11738714_s_at) / RFU VCAN (11748164_a_at) / Fold change /veh VCAN (11748164_a_at) / RFU JSRP1 (11732532_at) / Fold change /veh JSRP1 (11732532_at) / RFU KRTAP10-11 (11738290_x_at) / Fold change /veh KRTAP10-11 (11738290_x_at) / RFU MYO3A (11730013_a_at) / Fold change /veh MYO3A (11730013_a_at) / RFU EBF3 (11725865_a_at) / Fold change /veh EBF3 (11725865_a_at) / RFU CAMK2N1 (11719241_x_at) / Fold change /veh CAMK2N1 (11719241_x_at) / RFU C5orf56 (11738088_a_at) / Fold change /veh C5orf56 (11738088_a_at) / RFU OLFML3 (11715873_a_at) / Fold change /veh OLFML3 (11715873_a_at) / RFU LOC100653217 /// NTM (11731650_a_at) / Fold change /veh LOC100653217 /// NTM (11731650_a_at) / RFU MAPK11 (11762145_a_at) / Fold change /veh MAPK11 (11762145_a_at) / RFU FIZ1 (11724087_x_at) / Fold change /veh FIZ1 (11724087_x_at) / RFU OASL (11726364_x_at) / Fold change /veh OASL (11726364_x_at) / RFU SOX15 (11748057_x_at) / Fold change /veh SOX15 (11748057_x_at) / RFU CD79A (11719716_a_at) / Fold change /veh CD79A (11719716_a_at) / RFU HIST1H1D (11736915_at) / Fold change /veh HIST1H1D (11736915_at) / RFU CASKIN2 (11723855_a_at) / Fold change /veh CASKIN2 (11723855_a_at) / RFU LOC730098 (11760151_x_at) / Fold change /veh LOC730098 (11760151_x_at) / RFU OR4N2 (11742367_at) / Fold change /veh OR4N2 (11742367_at) / RFU PRRT2 (11749266_a_at) / Fold change /veh PRRT2 (11749266_a_at) / RFU SNX32 (11753110_a_at) / Fold change /veh SNX32 (11753110_a_at) / RFU CDHR5 (11726645_a_at) / Fold change /veh CDHR5 (11726645_a_at) / RFU RCAN1 (11760418_a_at) / Fold change /veh RCAN1 (11760418_a_at) / RFU FAM167A (11723789_a_at) / Fold change /veh FAM167A (11723789_a_at) / RFU FAM26E (11764081_at) / Fold change /veh FAM26E (11764081_at) / RFU ISYNA1 (11749810_s_at) / Fold change /veh ISYNA1 (11749810_s_at) / RFU ACY1 (11761880_at) / Fold change /veh ACY1 (11761880_at) / RFU 11764098_at / Fold change /veh 11764098_at / RFU SAMD14 (11745864_x_at) / Fold change /veh SAMD14 (11745864_x_at) / RFU NPB (11741838_a_at) / Fold change /veh NPB (11741838_a_at) / RFU TMPRSS6 (11731388_a_at) / Fold change /veh TMPRSS6 (11731388_a_at) / RFU KRTAP10-2 (11738614_at) / Fold change /veh KRTAP10-2 (11738614_at) / RFU ARHGAP8 /// PRR5-ARHGAP8 (11727945_x_at) / Fold change /veh ARHGAP8 /// PRR5-ARHGAP8 (11727945_x_at) / RFU KRTAP5-7 /// NADSYN1 (11734609_at) / Fold change /veh KRTAP5-7 /// NADSYN1 (11734609_at) / RFU RASL12 (11751679_a_at) / Fold change /veh RASL12 (11751679_a_at) / RFU CDKN2B (11736163_a_at) / Fold change /veh CDKN2B (11736163_a_at) / RFU PRF1 (11729649_at) / Fold change /veh PRF1 (11729649_at) / RFU, ZNF638 /// ZNF638-IT1 / Fold change vs veh, ZNF638 /// ZNF638-IT1 / RFU, PANK3 / Fold change vs veh, PANK3 / RFU, SH3YL1 / Fold change vs veh, SH3YL1 / RFU, ZEB2 / Fold change vs veh, ZEB2 / RFU, NRIP1 / Fold change vs veh, NRIP1 / RFU, PTTG1IP / Fold change vs veh, PTTG1IP / RFU, CAPN2 / Fold change vs veh, CAPN2 / RFU, MED14 / Fold change vs veh, MED14 / RFU, SNORA58 / Fold change vs veh, SNORA58 / RFU, C1orf63 / Fold change vs veh, C1orf63 / RFU, LRRFIP1 / Fold change vs veh, LRRFIP1 / RFU, NDUFAF7 / Fold change vs veh, NDUFAF7 / RFU, SLC12A2 / Fold change vs veh, SLC12A2 / RFU, IBTK / Fold change vs veh, IBTK / RFU, ESF1 / Fold change vs veh, ESF1 / Fold change vs veh, TMEM50B / RFU, TAOK1 / Fold change vs veh, TAOK1 / RFU, ACBD3 / Fold change vs veh, ACBD3 / RFU, TMA16 / Fold change vs veh, TMA16 / RFU, RWDD3 / Fold change vs veh, RWDD3 / RFU, BCAT1 / Fold change vs veh, BCAT1 / RFU, EDEM3 / Fold change vs veh, EDEM3 / RFU, TMEM33 / Fold change vs veh, TMEM33 / RFU, WDR75 / Fold change vs veh, WDR75 / RFU, AHCTF1 / Fold change vs veh, AHCTF1 / RFU, TFRC / Fold change vs veh, TFRC / RFU, ZDHHC17 / Fold change vs veh, ZDHHC17 / RFU, NOM1 / Fold change vs veh, NOM1 / RFU, ARL8B / Fold change vs veh, ARL8B / RFU, ZBTB11 / Fold change vs veh, ZBTB11 / RFU, TAMM41 / Fold change vs veh, TAMM41 / RFU, KIAA1704 /// LOC100996395 / Fold change vs veh, KIAA1704 /// LOC100996395 / RFU, ING1 / Fold change vs veh, ING1 / RFU, TRMT61B / Fold change vs veh, TRMT61B / RFU, FUBP3 / Fold change vs veh, FUBP3 / RFU, TP53 / Fold change vs veh, TP53 / RFU, TNKS2 / Fold change vs veh, TNKS2 / RFU, ZFP14 / Fold change vs veh, ZFP14 / RFU, ACTR2 / Fold change vs veh, ACTR2 / RFU, PPP3R1 / Fold change vs veh, PPP3R1 / RFU, PIK3R1 / Fold change vs veh, PIK3R1 / RFU, HNRNPA1 / Fold change vs veh, HNRNPA1 / RFU, RNF170 / Fold change vs veh, RNF170 / RFU, ZNF28 / Fold change vs veh, ZNF28 / RFU, RNGTT / Fold change vs veh, RNGTT / RFU, OGT / Fold change vs veh, OGT / RFU, BRD1 / Fold change vs veh, BRD1 / RFU, MARS / Fold change vs veh, MARS / RFU, ZNF655 / Fold change vs veh, ZNF655 / RFU, FAHD1 / Fold change vs veh, FAHD1 / RFU, BDP1 / Fold change vs veh, BDP1 / RFU, LRRCC1 / Fold change vs veh, LRRCC1 / RFU, ARID1A / Fold change vs veh, ARID1A / RFU, ZNF146 / Fold change vs veh, ZNF146 / RFU, ZNF330 / Fold change vs veh, ZNF330 / RFU, GPN3 / Fold change vs veh, GPN3 / RFU, C9orf123 / Fold change vs veh, C9orf123 / RFU, N4BP2L2 / Fold change vs veh, N4BP2L2 / RFU, ARFIP1 / Fold change vs veh, ARFIP1 / RFU, FAM179B / Fold change vs veh, FAM179B / RFU, BCL10 / Fold change vs veh, BCL10 / RFU, UHRF1BP1L / Fold change vs veh, UHRF1BP1L / RFU, BET1 / Fold change vs veh, BET1 / RFU, CNOT2 / Fold change vs veh, CNOT2 / RFU, ZNF268 / Fold change vs veh, ZNF268 / Fold change vs veh, ZNF507 / RFU, DGCR2 / Fold change vs veh, DGCR2 / RFU, WDSUB1 / Fold change vs veh, WDSUB1 / Fold change vs veh, HSP90B1 /// MIR3652 / RFU, ADSS / Fold change vs veh, ADSS / RFU, GK / Fold change vs veh, GK / RFU, ZNF148 / Fold change vs veh, ZNF148 / RFU, TAF9 / Fold change vs veh, TAF9 / RFU, SLC1A5 / Fold change vs veh, SLC1A5 / RFU, SLMO2 / Fold change vs veh, SLMO2 / RFU, ABCC4 / Fold change vs veh, ABCC4 / RFU, LOC101060439 /// RAP1B / Fold change vs veh, LOC101060439 /// RAP1B / RFU, RFX7 / Fold change vs veh, RFX7 / RFU, GTPBP10 / Fold change vs veh, GTPBP10 / RFU, CNEP1R1 / Fold change vs veh, CNEP1R1 / RFU, BIVM-ERCC5 /// ERCC5 / Fold change vs veh, BIVM-ERCC5 /// ERCC5 / RFU, ILF3 / Fold change vs veh, ILF3 / RFU 11762660_at / Fold change /veh 11762660_at / RFU VCAN (11757783_s_at) / Fold change /veh VCAN (11757783_s_at) / RFU DDX43 (11728927_at) / Fold change /veh DDX43 (11728927_at) / RFU KRT8 (11758188_x_at) / Fold change /veh KRT8 (11758188_x_at) / RFU NKD1 (11759106_at) / Fold change /veh NKD1 (11759106_at) / RFU SRD5A1 (11742802_a_at) / Fold change /veh SRD5A1 (11742802_a_at) / RFU TPSAB1 /// TPSB2 (11721975_s_at) / Fold change /veh TPSAB1 /// TPSB2 (11721975_s_at) / RFU GSTM3 (11746129_a_at) / Fold change /veh GSTM3 (11746129_a_at) / RFU IL23R (11737362_x_at) / Fold change /veh IL23R (11737362_x_at) / RFU TMEM51 (11727254_a_at) / Fold change /veh TMEM51 (11727254_a_at) / RFU PIWIL2 (11732686_x_at) / Fold change /veh PIWIL2 (11732686_x_at) / RFU ORM1 (11744905_x_at) / Fold change /veh ORM1 (11744905_x_at) / RFU CCDC152 (11743942_at) / Fold change /veh CCDC152 (11743942_at) / RFU ECM1 (11717891_a_at) / Fold change /veh ECM1 (11717891_a_at) / RFU IL23R (11748794_a_at) / Fold change /veh IL23R (11748794_a_at) / RFU TNFAIP8L3 (11732012_x_at) / Fold change /veh TNFAIP8L3 (11732012_x_at) / RFU MBOAT4 (11741988_at) / Fold change /veh MBOAT4 (11741988_at) / RFU 11764193_at / Fold change /veh 11764193_at / RFU TMEM53 (11763286_at) / Fold change /veh TMEM53 (11763286_at) / RFU MAGEB2 (11727129_at) / Fold change /veh MAGEB2 (11727129_at) / RFU TMEM200A (11744735_a_at) / Fold change /veh TMEM200A (11744735_a_at) / RFU CCDC152 (11751479_a_at) / Fold change /veh CCDC152 (11751479_a_at) / RFU FAM211A (11726209_a_at) / Fold change /veh FAM211A (11726209_a_at) / RFU RGS16 (11746705_a_at) / Fold change /veh RGS16 (11746705_a_at) / RFU VCAN (11755009_s_at) / Fold change /veh VCAN (11755009_s_at) / RFU RHOB (11743442_s_at) / Fold change /veh RHOB (11743442_s_at) / RFU RGS16 (11720943_a_at) / Fold change /veh RGS16 (11720943_a_at) / RFU RGS16 (11720944_at) / Fold change /veh RGS16 (11720944_at) / RFU, VPS4B / Fold change vs veh, VPS4B / RFU, CREB1 / Fold change vs veh, CREB1 / RFU, DNAJC13 / Fold change vs veh, DNAJC13 / RFU, GNAQ / Fold change vs veh, GNAQ / RFU, CDK5R1 / Fold change vs veh, CDK5R1 / RFU, ZRANB3 / Fold change vs veh, ZRANB3 / RFU, CUL4A / Fold change vs veh, CUL4A / RFU, CCNY / Fold change vs veh, CCNY / RFU, UFL1 / Fold change vs veh, UFL1 / RFU, COG3 / Fold change vs veh, COG3 / RFU, DIAPH2 / Fold change vs veh, DIAPH2 / RFU, SKA2 / Fold change vs veh, SKA2 / RFU, AFF3 / Fold change vs veh, AFF3 / RFU, LMF1 / Fold change vs veh, LMF1 / RFU, IPO11 / Fold change vs veh, IPO11 / RFU, DFFB / Fold change vs veh, DFFB / RFU, FOXP1 / Fold change vs veh, FOXP1 / RFU, CARD8 / Fold change vs veh, CARD8 / RFU, STRN3 / Fold change vs veh, STRN3 / RFU, ADK / Fold change vs veh, ADK / RFU, RASSF2 / Fold change vs veh, RASSF2 / RFU, WIPF1 / Fold change vs veh, WIPF1 / RFU, LARP1B / Fold change vs veh, LARP1B / RFU, RASA1 / Fold change vs veh, RASA1 / RFU, RB1 / Fold change vs veh, RB1 / RFU, PPFIA1 / Fold change vs veh, PPFIA1 / RFU, MAT2A / Fold change vs veh, MAT2A / RFU, CCT5 / Fold change vs veh, CCT5 / RFU, WDR92 / Fold change vs veh, WDR92 / RFU, CUX1 / Fold change vs veh, CUX1 / RFU, TTC7A / Fold change vs veh, TTC7A / RFU, TMEM135 / Fold change vs veh, TMEM135 / RFU, DEPTOR / Fold change vs veh, DEPTOR / RFU, CPM / Fold change vs veh, CPM / RFU, DNAJB6 / Fold change vs veh, DNAJB6 / RFU, CACNA2D3 / Fold change vs veh, CACNA2D3 / RFU, DTX4 / Fold change vs veh, DTX4 / RFU, TFCP2 / Fold change vs veh, TFCP2 / RFU, GMCL1 /// GMCL1P1 / Fold change vs veh, GMCL1 /// GMCL1P1 / RFU, AEBP2 / Fold change vs veh, AEBP2 / RFU, SNHG1 /// SNORD22 /// SNORD25 /// SNORD26 /// SNORD27 /// SNORD28 /// SNORD29 /// SNORD31 / Fold change vs veh, SNHG1 /// SNORD22 /// SNORD25 /// SNORD26 /// SNORD27 /// SNORD28 /// SNORD29 /// SNORD31 / Fold change (Aza/veh), C12orf56 (ProbeSet 11735607_a_at) / Fold change (ACY-1035/veh), C12orf56 (ProbeSet 11735607_a_at) / Fold change (Aza/veh), FGFR1OP (ProbeSet 11751329_s_at) / Fold change (ACY-1035/veh), FGFR1OP (ProbeSet 11751329_s_at) / Fold change (Aza/veh), VPS36 (ProbeSet 11739960_a_at) / Fold change (ACY-1035/veh), VPS36 (ProbeSet 11739960_a_at) / RFU SYPL1 (11715823_x_at) / Fold change /veh SYPL1 (11715823_x_at) / RFU IGFBP7 (11715501_s_at) / Fold change /veh IGFBP7 (11715501_s_at) / RFU REEP3 (11722064_at) / Fold change /veh REEP3 (11722064_at) / RFU IGLL1 (11728026_x_at) / Fold change /veh IGLL1 (11728026_x_at): dose or concentration left out as unconfirmed
# Conditions: MV-4-11 cells, 48 hours
smiles,measurement,value
Nc1ccc(-c2cccs2)cc1NC(=O)c1ccc2c(c1)cc(C1CC1)n2CCN1CCOCC1 [ACY-1035],Fold change /veh SRD5A1 (11742802_a_at),1.16
